# Laboratory results reported in patent US20250368616A1, “NITROGEN-CONTAINING HETEROCYCLIC DERIVATIVE INHIBITOR, AND PREPARATION METHOD THEREFOR AND USE THEREOF” (SHANGHAI HANSOH BIOMEDICAL CO., LTD., priority 2021, published 2025).
# pIC50: −log10 of the molar value.
# Key:
# [1] = test system: Ba/F3 EGFR Del19/T790M/C797S cells; assay: Cell proliferation inhibition assay (Cell Titer-Glo), Ba/F3 EGFR Del19/T790M/C797S; format: cell-based; settings: 72 hours, read-out: Ba/F3 EGFR Del19_T790M_C797S IC50
# Text: (§1) Test Example 2: Cell Proliferation Inhibition Assay
# (§2) Experimental objective: The objective of this test example is to test the inhibitory activity of compounds on the proliferation of different EGFR C797S drug-resistant mutant cell lines Ba/F3 EGFR Del19/T790M/C797S, Ba/F3 EGFR L858R/T790M/C797S, and Ba/F3 EGFR Del19/C797S.
# (§3) • Ba/F3 EGFR Del19/T790M/C797S cells were purchased from KYinno Biotechnology Co., Ltd.; • Ba/F3 EGFR Del19/C797S cells were purchased from CoBioer Biosciences Co., Ltd.; • Ba/F3 EGFR L858R/T790M/C797S cells were purchased from CoBioer Biosciences Co., Ltd.; • Cell Titer-Glo was purchased from Promega, with a catalog number of G7573; • RPMI 1640 was purchased from Gibco, with a catalog number of 22400089; • FBS was purchased from Gibco, with a catalog number of 10091148; • cell culture plates were purchased from Corning, with a catalog number of 3610.
# (§4) The inhibitory activity of the compound on the proliferation of different EGFR C797S drug-resistant mutant cell lines was detected using the Cell Titer-Glo method. The different cell lines were cultured in RPMI 1640 complete culture medium containing 10% FBS under conditions of 37° C. and 5% CO2, the cells were collected by centrifugation when growing to a certain density, and adjusted to appropriate cell density after counting, the cells were spread on a white 96-well plate at 90 μL/well, and cultured in a 37° C., 5% CO2 incubator overnight, prepared compound solutions of different concentrations were added at 10 μL/well, corresponding solvent controls were set, and all wells were cultured in a 37° C., 5% CO2 incubator for 72 hours, 50 μL of CellTiter-Glo solution was added to each well, shook and mixed evenly, and incubated in the dark for 10 minutes, and a BioTek Synergy H1 microplate reader was used for reading.
# (§5) The luminescence signal value was used to calculate the inhibition rate. Graphpad Prism software was used to fit the concentration and inhibition rate to a nonlinear regression curve, so as to obtain the IC50 value, as shown in Tables 3 and 4 below for details.
# [2] = test system: Ba/F3 EGFR Del19/C797S cells; assay: Cell proliferation inhibition assay (Cell Titer-Glo), Ba/F3 EGFR Del19/C797S; format: cell-based; settings: 72 hours, read-out: Ba/F3 EGFR Del19_C797S IC50
# Text: as §1, §2, §3, §4, §5
# [3] = biological target: EGFR del19/T790M/C797S mutant kinase (Homo sapiens, UniProt P00533, C797S/DEL746-750/T790M); assay: HTRF kinase assay, EGFR del19/T790M/C797S mutant kinase; format: biochemical; settings: 120 minutes at room temperature
# EGFR del19/T790M/C797S mutant kinase, sequence (P00533 with tags, fused parts or gaps C797S/DEL746-750/T790M limits assumed): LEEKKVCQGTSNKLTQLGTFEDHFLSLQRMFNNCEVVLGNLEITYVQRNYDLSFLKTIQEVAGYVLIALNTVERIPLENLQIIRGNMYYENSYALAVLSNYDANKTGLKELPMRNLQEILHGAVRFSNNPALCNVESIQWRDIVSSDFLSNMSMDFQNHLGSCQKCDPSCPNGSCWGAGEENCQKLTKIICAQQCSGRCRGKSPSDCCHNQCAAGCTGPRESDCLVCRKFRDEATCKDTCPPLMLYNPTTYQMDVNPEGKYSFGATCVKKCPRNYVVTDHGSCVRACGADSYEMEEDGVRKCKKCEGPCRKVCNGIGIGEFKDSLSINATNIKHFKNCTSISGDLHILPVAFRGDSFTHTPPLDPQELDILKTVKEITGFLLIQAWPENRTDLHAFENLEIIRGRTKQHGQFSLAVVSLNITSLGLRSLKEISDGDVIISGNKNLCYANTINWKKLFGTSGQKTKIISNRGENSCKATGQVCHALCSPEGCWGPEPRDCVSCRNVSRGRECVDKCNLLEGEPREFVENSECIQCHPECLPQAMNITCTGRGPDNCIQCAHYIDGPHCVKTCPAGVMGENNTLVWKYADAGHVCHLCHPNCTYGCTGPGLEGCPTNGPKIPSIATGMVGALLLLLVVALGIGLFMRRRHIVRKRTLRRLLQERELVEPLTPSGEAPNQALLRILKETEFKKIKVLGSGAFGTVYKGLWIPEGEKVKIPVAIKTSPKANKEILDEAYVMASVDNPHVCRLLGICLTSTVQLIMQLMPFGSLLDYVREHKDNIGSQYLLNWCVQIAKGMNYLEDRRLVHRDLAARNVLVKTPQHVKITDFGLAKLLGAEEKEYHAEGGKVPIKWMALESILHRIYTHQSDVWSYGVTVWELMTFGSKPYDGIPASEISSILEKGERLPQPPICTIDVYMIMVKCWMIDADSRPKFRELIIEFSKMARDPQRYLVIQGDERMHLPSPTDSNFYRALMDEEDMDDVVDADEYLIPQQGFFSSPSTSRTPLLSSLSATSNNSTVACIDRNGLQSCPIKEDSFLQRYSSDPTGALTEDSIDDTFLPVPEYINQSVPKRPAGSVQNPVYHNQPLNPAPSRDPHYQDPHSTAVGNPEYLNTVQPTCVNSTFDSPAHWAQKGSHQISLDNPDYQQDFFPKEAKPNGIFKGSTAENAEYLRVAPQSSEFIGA
# Text: Test Example 1. Determination of the Inhibitory Effect of the Compounds of the Present Invention on the Activity of EGFR del19/T790M/C797S and EGFR L858R/T790M/C797S Mutant Kinases
# Experimental objective: The objective of this test example is to test the inhibitory activity of the compounds on the activity of EGFR del19/T790M/C797S and EGFR L858R/T790M/C797S mutant kinases.
# Experimental method: This experiment used Cisbio's HTRF kinase assay method (Cisbio #62TK0PEB), wherein a catalytic reaction occurred between the substrate polypeptide TK and ATP in the presence of the tyrosine kinase with EGFR del19/T790M/C797S or EGFR L858R/T790M/C797S mutation, the substance was phosphorylated, and the activity of the kinase was characterized by measuring the content of the phosphorylated substrate generated during the reaction, and the half inhibitory concentration IC50 of the compound on the activity of EGFR del19/T790M/C797S or EGFR L858R/T790M/C797S mutant kinase was obtained.
# Specific Experimental Operations were as Follows: • the kinase reaction was carried out in a white 384-well plate (Perkin Elmer #6008280), and 1-5 μL of compounds of different concentrations which were diluted with 1% DMSO-containing ddH2O were added; to the positive control wells were added 1-5 μL of 1% DMSO-containing ddH2O, followed by 1-5 μL of 0.5-5 nM 4×EGFR del19/T790M/C797S or EGFR L858R/T790M/C797S mutant kinase solution which was diluted with Dilution buffer (5× kinase buffer, MgCl2 6.65 Mm, MnCl2 1.33 mM, DTT 1.33 mM); to the negative control wells were added 1-5 μL of Dilution buffer; to all the wells were added 1-5 μL of 4 μM 4× substrate TK solution which was prepared with 10× Dilution buffer, and finally added 1-5 μL of 24 μM 4×ATP solution which was diluted with Dilution buffer to start the reaction; after reacting at room temperature for 120 minutes, 10 μL of detection solution (TK antibody 16 nM, XL665 0.5 μM) was added to each well, same was reacted at room temperature in the dark for 20 minutes, and then the […] was detected using a BioTek Synergy H1 microplate reader.
# The percent inhibition data for compound-treated wells was calculated according to the positive control wells (DMSO control wells) and negative control wells (no kinase added) on the plate {% inhibition rate=100−[(test compound value−negative control value)]/(positive control value−negative control value)×100}. GraphPad prism was used to fit different concentrations and corresponding percent inhibition rate data to a 4-parameter nonlinear logistic equation to calculate IC50 values.
SMILES,pIC50 [1],pIC50 [2],pIC50 [3]
"CC(C)c1ccc(N2C[C@H](CS(C)(=O)=O)[C@H]2C)c2cnc(Nc3ccnc(-c4cn(CCO)nc4Cl)n3)cc12 [Example 11, 2-(3-chloro-4-(4-((5-isopropyl-8-((2R,3S)-2-methyl-3-((methanesulfonyl)methyl)azabut-1-yl)isoquinolin-3-yl)amino)pyrimidin-2-yl)-1H-pyrazol-1-yl)ethanol]",8.14,7.62,–
"CC(C)c1ccc(N2C[C@H](CS(C)(=O)=O)[C@H]2C)c2cnc(Nc3ccnc(-c4cnn(CC5(CC#N)CC5)c4)n3)cc12 [Example 18, 2-(1-((4-(4-((5-isopropyl-8-((2R,3S)-2-methyl-3-((methanesulfonyl)methyl)azetidin-1-yl)isoquinolin-3-yl)amino)pyrimidin-2-yl)-1H-pyrazol-1-yl)methyl)cyclopropyl)acetonitrile]",–,–,8.04
"CC(C)c1ccc(N2C[C@H](CS(C)(=O)=O)[C@H]2C)c2cnc(Nc3ccnc(-c4cn(CCC#N)nc4Cl)n3)cc12 [Example 67, 3-(3-chloro-4-(4-((5-isopropyl-8-((2R,3S)-2-methyl-3-((methanesulfonyl)methyl)azetidin-1-yl)isoquinolin-3-yl)amino)pyrimidin-2-yl)-1H-pyrazol-1-yl)propanenitrile]",–,7.70,–
"Cc1nn(C)cc1-c1nccc(Nc2cc3c(C(C)C)ccc(N4CC(N5CCCS5(=O)=O)C4)c3cn2)n1 [Example 69, 2-(1-(3-((2-(1,3-dimethyl-1H-pyrazol-4-yl)pyrimidin-4-yl)amino)-5-isopropylisoquinolin-8-yl)azetidin-3-yl)isothiazolidine 1,1-dioxide]",–,7.29,–
"COC(=O)NC1CN(c2ccc(C(C)C)c3cc(Nc4ccnc(-c5cn(C)nc5Cl)n4)ncc23)C1 [Example 72, methyl (1-(3-((2-(3-chloro-1-methyl-1H-pyrazol-4-yl)pyrimidin-4-yl)amino)-5-isopropylisoquinolin-8-yl)azetidin-3-yl)carbamate]",–,7.11,–
"CC(C)c1ccc(N2CC(C[S+](C)[O-])C2)c2cnc(Nc3ccnc(-c4cn(C)nc4Cl)n3)cc12 (stereo not drawn) [Example 76, N-(2-(3-chloro-1-methyl-H-pyrazol-4-yl)pyrimidin-4-yl)-5-isopropyl-8-(3-((methylsulfinyl<sulfenyl>)methyl)azetidin-1-yl)isoquinolin-3-amine]",–,7.20,–
"Cc1nn(C)c(F)c1-c1nccc(Nc2cc3c(C(C)C)ccc(N4C[C@H](CS(C)(=O)=O)[C@H]4C)c3cn2)n1 [Example 77, N-(2-(5-fluoro-1,3-dimethyl-1H-pyrazol-4-yl)pyrimidin-4-yl)-5-isopropyl-8-((2R,3S)-2-methyl-3-((methanesulfonyl)methyl)azetidin-1-yl)isoquinolin-3-amine]",–,7.92,–
"CC(C)c1ccc(N2C[C@H](CS(C)(=O)=O)[C@H]2C)c2cnc(Nc3ccnc(-c4cn(C5COC5)nc4Cl)n3)cc12 [Example 81, N-(2-(3-chloro-1-(oxetan-3-yl)-1H-pyrazol-4-yl)pyrimidin-4-yl)-5-isopropyl-8-((2R,3S)-2-methyl-3-((methanesulfonyl)methyl)azetidin-1-yl)isoquinolin-3-amine]",–,7.30,–
"CC(C)c1ccc(N2CC(N3C[C@@H](C)OC3=O)C2)c2cnc(Nc3ccnc(-c4cn(C)nc4Cl)n3)cc12 [Example 84, (R)-3-(1-(3-((2-(3-chloro-1-methyl-1H-pyrazol-4-yl)pyrimidin-4-yl)amino)-5-isopropylisoquinolin-8-yl)azetidin-3-yl)-5-methyloxazolidin-2-one]",–,7.03,–

# Continued by rising pIC50 [2], values first:
pIC50 [1],pIC50 [2],pIC50 [3],SMILES
–,7.02,–,"CC(C)c1ccc(N2C[C@H](CS(C)(=O)=O)[C@H]2C)c2cnc(Nc3ccnc(-c4cn(CCN)nc4Cl)n3)cc12 [Example 71, N-(2-(1-(2-aminoethyl)-3-chloro-1H-pyrazol-4-yl)pyrimidin-4-yl)-5-isopropyl-8-((2R,3S)-2-methyl-3-((methanesulfonyl)methyl)azetidin-1-yl)isoquinolin-3-amine]"
–,7.07,8.38,"CC(C)c1ccc(N2C[C@H](CS(C)(=O)=O)[C@H]2C)c2cnc(Nc3ccnc(-c4cnn(CCO)c4)n3)cc12 [Example 48, 2-(4-(4-((5-isopropyl-8-((2R,3S)-2-methyl-3-((methanesulfonyl)methyl)azetidin-1-yl)isoquinolin-3-yl)amino)pyrimidin-2-yl)-1H-pyrazol-1-yl)ethan-1-ol]"
–,7.13,–,"Cc1nn(C)cc1-c1nccc(Nc2cc3c(C(C)C)ccc(N4CC(CS(C)(=O)=NC#N)C4)c3cn2)n1 (stereo not drawn) [Example 83, N-(((1-(3-((2-(1,3-dimethyl-1H-pyrazol-4-yl)pyrimidin-4-yl)amino)-5-isopropylisoquinolin-8-yl)azetidin-3-yl)methyl)(methyl)(carbonyl)-l6-sulfanylidene)cyanamide]"
7.85,7.27,–,"CC(C)c1ccc(N2C[C@H](CS(C)(=O)=O)[C@H]2C)c2cnc(Nc3ccnc(-c4cnn(C(F)F)c4)n3)cc12 [Example 25, N-(2-(1-(difluoromethyl)-1H-pyrazol-4-yl)pyrimidin-4-yl)-5-isopropyl-8-((2R,3S)-2-methyl-3-((methanesulfonyl)methyl)azetidin-1-yl)isoquinolin-3-amine]"
–,7.48,–,"CC(C)c1ccc(N2C[C@H](CS(C)(=O)=O)[C@H]2C)c2cnc(Nc3ccnc(-c4cn(CC(O)CF)nc4Cl)n3)cc12 (stereo partly drawn) [Example 82, 1-(3-chloro-4-(4-((5-isopropyl-8-((2R,3S)-2-methyl-3-((methanesulfonyl)methyl)azetidin-1-yl)isoquinolin-3-yl)amino)pyrimidin-2-yl)-1H-pyrazol-1-yl)-3-fluoropropan-2-ol]"
–,7.49,8.12,"CC(C)c1ccc(N2C[C@H](CS(C)(=O)=O)[C@H]2C)c2cnc(Nc3ccnc(-c4cncs4)n3)cc12 [Example 54, 5-isopropyl-8-((2R,3S)-2-methyl-3-((methanesulfonyl)methyl)azetidin-1-yl)-N-(2-(thiazol-5-yl)pyrimidin-4-yl)isoquinolin-3-amine]"
–,7.55,–,"CC(C)c1ccc(N2CC(C[N+](=O)[O-])C2)c2cnc(Nc3ccnc(-c4cn(C)nc4Cl)n3)cc12 [Example 75, N-(2-(3-chloro-1-methyl-1H-pyrazol-4-yl)pyrimidin-4-yl)-5-isopropyl-8-(3-(nitromethyl)azetidin-1-yl)isoquinolin-3-amine]"
–,7.68,–,"CC(C)c1ccc(N2CC(N3CCCS3(=O)=O)C2)c2cnc(Nc3ccnc(-c4cn(C)nc4Cl)n3)cc12 [Example 68, 2-(1-(3-((2-(3-chloro-1-methyl-1H-pyrazol-4-yl)pyrimidin-4-yl)amino)-5-isopropylisoquinolin-8-yl)azetidin-3-yl)isothiazolidine 1,1-dioxide]"
